By IC50 is commonly meant the point on the concentration scale where inhibition reaches its midpoint. A lower IC50 goes with higher potency.

Assay [1] deals with SNU-16. The assay can be described thus: Cell SNU-16 assay. It counts as cell-based.
Assay [2] addresses FGFR2 (Homo sapiens (Human), UniProt P21802). Put plainly: Biochemical FGFR2 Caliper assay.
[3] abbreviates: Homo sapiens, SNU-16, SNU-16 cells.

Sequence of FGFR2 (P21802 22-821): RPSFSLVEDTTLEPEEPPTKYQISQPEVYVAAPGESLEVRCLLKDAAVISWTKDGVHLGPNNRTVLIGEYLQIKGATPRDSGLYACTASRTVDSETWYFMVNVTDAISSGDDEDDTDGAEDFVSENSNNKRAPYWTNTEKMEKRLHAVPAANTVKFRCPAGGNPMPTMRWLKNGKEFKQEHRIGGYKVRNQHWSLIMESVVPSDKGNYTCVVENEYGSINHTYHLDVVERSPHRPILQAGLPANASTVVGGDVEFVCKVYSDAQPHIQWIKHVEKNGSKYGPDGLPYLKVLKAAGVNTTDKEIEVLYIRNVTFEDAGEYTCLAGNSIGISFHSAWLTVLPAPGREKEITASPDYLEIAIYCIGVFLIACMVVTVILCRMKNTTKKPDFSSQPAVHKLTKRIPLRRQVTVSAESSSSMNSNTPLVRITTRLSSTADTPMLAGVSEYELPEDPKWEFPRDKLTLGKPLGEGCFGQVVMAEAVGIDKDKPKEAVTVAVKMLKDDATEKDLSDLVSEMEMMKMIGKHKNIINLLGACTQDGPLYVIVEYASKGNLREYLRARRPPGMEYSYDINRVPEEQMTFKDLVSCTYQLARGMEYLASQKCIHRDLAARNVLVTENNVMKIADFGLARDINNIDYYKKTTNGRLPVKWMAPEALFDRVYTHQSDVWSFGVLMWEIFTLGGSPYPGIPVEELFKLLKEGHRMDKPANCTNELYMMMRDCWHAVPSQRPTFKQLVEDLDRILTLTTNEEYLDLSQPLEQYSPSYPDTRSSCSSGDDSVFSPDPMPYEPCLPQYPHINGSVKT

With `C#Cc1cc(C)c(-c2c(C3=CC[C@]4(CC3)Cc3ccc(C)nc3C4=O)c3c(N)ncnc3n2C)cn1` [Example 1398], the results for the IC50 in assay [1] (setting [3]) and in assay [2] were no more than 100 nM and less than 100 nM, respectively.

As for `C#Cc1cc(C)c(-c2c(C3=CC[C@]4(CC3)Cc3ccc(C)nc3O4)c3c(N)ncnc3n2C)cn1` [Example 1399], the IC50 in assay [1] (setting [3]) was 100 to 250 nM; in assay [2] it was less than 100 nM.

Regarding `C#Cc1cc(C)c(-c2c(-c3ccc(Oc4nccc(C)n4)c(F)c3)c3c(C)ncnc3n2C)c(F)n1` [Example 1400], the IC50 in assay [1] (setting [3]) was no more than 100 nM; in assay [2] it was less than 100 nM.

Take `C#Cc1cc(C)c(-c2c(-c3ccc(Oc4nccc(C)n4)c(F)c3)c3c(Cl)ncnc3n2C)c(F)n1` [Example 1401]: the IC50 in assay [1] (setting [3]) was no more than 100 nM; in assay [2], less than 100 nM.

On to `C#Cc1cc2cc(-c3c(-c4ccc(Oc5nccc(C)n5)c(F)c4)c4c(N)ncnc4n3C)ccc2cn1` [Example 1402], for which the IC50 in assay [1] (setting [3]) and in assay [2] was 1000 to 100000 nM each time.

With `C#Cc1cc(OC)c(-c2c(-c3ccc(Oc4nccc(C)n4)c(F)c3)c3c(Cl)ncnc3n2C)cn1` [Example 1403], the IC50 in assay [1] (setting [3]) was no more than 100 nM; in assay [2], less than 100 nM.

As for `C#Cc1cc2ccc(-c3c(-c4ccc(Oc5nccc(C)n5)c(F)c4)c4c(N)ncnc4n3C)cc2cn1` [Example 1404], the IC50 in assay [1] (setting [3]) and in assay [2] was 250 to 1000 nM in each case.

In the case of `C#Cc1ccc2cc(-c3c(-c4ccc(Oc5nccc(C)n5)c(F)c4)c4c(N)ncnc4n3C)ccc2n1` [Example 1405], the IC50 in assay [1] (setting [3]) is no more than 100 nM; in assay [2], less than 100 nM.

`C#Cc1cc(C)c(-c2c(-c3ccc(Oc4nccc(C)n4)c(F)c3)c3c(C)ncnc3n2C)c(C)n1` [Example 1406]: the figures for the IC50 in assay [1] (setting [3]) and in assay [2] were no more than 100 nM and less than 100 nM, respectively.

In the case of `C=C(C)c1ccc(-c2c(-c3ccc4nn[nH]c4c3)c3c(N)ncnc3n2C)cn1` [Example 1407], the IC50 in assay [1] (setting [3]) and in assay [2] was 250 to 1000 nM throughout.

For `C#Cc1cnc2cc(-c3c(-c4ccc(Oc5nccc(C)n5)c(F)c4)c4c(C)ncnc4n3C)ccc2n1` [Example 1408], the results for the 50% inhibitory concentration (IC50) in assay [1] (setting [3]) and in assay [2] were 100 to 250 nM and less than 100 nM, respectively.

As to `C#Cc1ncc2cc(-c3c(-c4ccc(Oc5nccc(C)n5)c(F)c4)c4c(N)ncnc4n3C)n(C)c2n1` [Example 1411], the IC50 in assay [1] (setting [3]) was no more than 100 nM; in assay [2] it was less than 100 nM.

For the molecule `C#Cc1ccc2ccc(-c3c(-c4ccc(Oc5nccc(C)n5)c(F)c4)c4c(N)ncnc4n3C)cc2n1` [Example 1412], the IC50 in assay [1] (setting [3]) and in assay [2] was 250 to 1000 nM throughout.

In the case of `C#Cc1cnc2c(cc(-c3c(-c4ccc(Oc5nccc(C)n5)c(F)c4)c4c(N)ncnc4n3C)n2C)n1` [Example 1413], the values for the half-maximal inhibitory concentration (IC50) in assay [1] (setting [3]) and in assay [2] were no more than 100 nM and less than 100 nM, respectively.

On to `C#Cc1cc(C)c(-c2c(-c3ccc(Oc4nccc(C)n4)c(F)c3)c3c(Cl)ncnc3n2C)c(F)n1` [Example 1416], for which the values for the IC50 in assay [1] (SNU-16 cells) and in assay [2] were 100 to 250 nM and less than 100 nM, respectively.

For `C#Cc1cc(C)c(-c2c(-c3ccc(Oc4nccc(C)n4)c(F)c3)c3c(Cl)ncnc3n2C)c(F)n1` [Example 1417], the results for the IC50 in assay [1] (SNU-16 cells) and in assay [2] were no more than 100 nM and less than 100 nM, respectively.

On to `C#Cc1cc(OC)c(-c2c(-c3ccc(Oc4nccc(C)n4)c(F)c3)c3c(C)ncnc3n2C)cn1` [Example 1418], for which the 50% inhibitory concentration (IC50) in assay [1] (setting [3]) was no more than 100 nM; in assay [2], less than 100 nM.

Turning to `C=C(C)C(=O)Nc1ccc(-c2c(-c3cnc(-c4ccc(OC)cc4)s3)c3c(N)ncnc3n2C)cc1` [Example 1419], the half-inhibitory concentration (IC50) in assay [1] (setting [3]) is no more than 100 nM; in assay [2], less than 100 nM.

Take `C=C(C)C(=O)Nc1ccc(-c2c(-c3cnc(-c4cccc(OC)c4)s3)c3c(N)ncnc3n2C)cc1` [Example 1420]: the IC50 in assay [1] (setting [3]) and in assay [2] was 250 to 1000 nM each time.

Turning to `C=C(C)C(=O)Nc1ccc(-c2c(-c3cnc(-c4cccc(F)c4)s3)c3c(N)ncnc3n2C)cc1` [Example 1421], the IC50 in assay [1] (setting [3]) and in assay [2] was 250 to 1000 nM throughout.

Consider `C=C(C)C(=O)Nc1ccc(-c2c(-c3cnc(-c4ccccc4C)s3)c3c(N)ncnc3n2C)cc1` [Example 1422], for which the half-maximal inhibitory concentration (IC50) in assay [1] (setting [3]) and in assay [2] was 250 to 1000 nM each time.

In the case of `C=C(C)C(=O)Nc1ccc(-c2c(-c3cnc(-c4cccc(C)c4)s3)c3c(N)ncnc3n2C)cc1` [Example 1423], the IC50 in assay [1] (setting [3]) and in assay [2] was 250 to 1000 nM in each case.

On to `C=C(C)C(=O)Nc1ccc(-c2c(-c3cnc(-c4ccc(F)cc4)s3)c3c(N)ncnc3n2C)cc1` [Example 1424], for which the IC50 is 250 to 1000 nM in assay [1] (setting [3]) and 100 to 250 nM in assay [2].

As for `C#Cc1cnc2cc(-c3c(-c4ccc(Oc5nccc(C)n5)c(F)c4)c4c(N)ncnc4n3C)ccc2c1` [Example 1425], the IC50 in assay [1] (setting [3]) and in assay [2] was 1000 to 100000 nM in each case.

Regarding `C#Cc1nc2cc(-c3c(-c4ccc(Oc5nccc(C)n5)c(F)c4)c4c(N)ncnc4n3C)c(OC)cc2n1C` [Example 1426], the figures for the IC50 in assay [1] (setting [3]) and in assay [2] were no more than 100 nM and less than 100 nM, respectively.

Consider `COCC#Cc1ccc2cc(-c3c(-c4ccc(Oc5nccc(C)n5)c(F)c4)c4c(N)ncnc4n3C)ccc2n1` [Example 1427], for which the IC50 was no more than 100 nM in assay [1] (setting [3]) and less than 100 nM in assay [2].

On to `C#Cc1cnc2cc(-c3c(-c4ccc(Oc5nccc(C)n5)c(F)c4)c4c(N)ncnc4n3C)c(C)cc2n1` [Example 1428], for which the IC50 in assay [1] (setting [3]) is no more than 100 nM; in assay [2], less than 100 nM.

As to `C#Cc1ccc2cc(-c3c(-c4ccc(Oc5nccc(C)n5)c(F)c4)c4c(N)ncnc4n3C)cnc2n1` [Example 1429], the IC50 is no more than 100 nM in assay [1] (setting [3]) and less than 100 nM in assay [2].

With `COCC#Cc1cc(OC)c(-c2c(-c3ccc(Oc4nccc(C)n4)c(F)c3)c3c(C)ncnc3n2C)cn1` [Example 1430], the IC50 in assay [1] (setting [3]) was no more than 100 nM; in assay [2] it was less than 100 nM.

With `[2H]C#Cc1cc(C)c(-c2c(-c3ccc(Oc4nccc(C)n4)c(F)c3)c3c(N)ncnc3n2C)cn1` [Example 1431], the IC50 is no more than 100 nM in assay [1] (setting [3]) and less than 100 nM in assay [2].

Regarding `C#Cc1cc(C)c(-c2c(-c3ccc(Oc4nccc(C)n4)c(F)c3)c3c(C(F)F)ncnc3n2C)cn1` [Example 1432], the IC50 in assay [1] (setting [3]) and in assay [2] was 1000 to 100000 nM throughout.

For the molecule `C#Cc1cc(OC)c(-c2c(-c3ccc(Oc4nccc(C)n4)c(F)c3)c3c(N)ncnc3n2C)cn1` [Example 1433], the IC50 in assay [1] (setting [3]) was no more than 100 nM; in assay [2] it was less than 100 nM.

Consider `C#Cc1nc2cc(-c3c(-c4ccc(Oc5nccc(C)n5)c(F)c4)c4c(N)ncnc4n3C)c(C)cc2n1C` [Example 1434], for which the figures for the IC50 in assay [1] (setting [3]) and in assay [2] were no more than 100 nM and less than 100 nM, respectively.

`C=C(C)C(=O)Nc1ccc(-c2c(-c3ccc(OCc4ccccc4)c(F)c3)c3c(N)ncnc3n2C)cc1` [Example 1435]: the IC50 in assay [1] (setting [3]) and in assay [2] was 1000 to 100000 nM throughout.

Take `C=C(C)C(=O)Nc1ccc(-c2c(-c3ccc(OCc4ccccn4)c(F)c3)c3c(N)ncnc3n2C)cc1` [Example 1436]: the 50% inhibitory concentration (IC50) in assay [1] (setting [3]) and in assay [2] was 1000 to 100000 nM throughout.

Take `C=C(C)C(=O)Nc1ccc(-c2c(-c3ccc(O)c(F)c3)c3c(N)ncnc3n2C)cc1` [Example 1437]: the IC50 fell in the range of 1000 to 100000 nM in assay [1] (setting [3]) and 250 to 1000 nM in assay [2].

`C#Cc1nc(C)c(-c2c(-c3ccc(Oc4nccc(C)n4)c(F)c3)c3c(N)ncnc3n2C)c(C)n1` [Example 1438]: the IC50 in assay [1] (setting [3]) was no more than 100 nM; in assay [2], less than 100 nM.

Turning to `C#Cc1cc(C)c(-c2c(-c3ccc(Oc4nccc(C)n4)c(F)c3)c3c(N)ncnc3n2C)cn1` [Example 1439], the results for the IC50 in assay [1] (SNU-16 cells) and in assay [2] were no more than 100 nM and less than 100 nM, respectively.

Turning to `C#Cc1cc2c(cn1)-c1c(-c3ccc(Oc4nccc(C)n4)c(F)c3)c3c(N)ncnc3n1CCO2` [Example 1440], the IC50 was no more than 100 nM in assay [1] (setting [3]) and less than 100 nM in assay [2].

As to `C#Cc1cc2c(cn1)-c1c(-c3ccc(Oc4nccc(C)n4)c(F)c3)c3c(N)ncnc3n1[C@H](C)CO2` [Example 1441], the IC50 in assay [1] (setting [3]) is 100 to 250 nM; in assay [2], 250 to 1000 nM.

As for `C#Cc1cc2c(cn1)-c1c(-c3ccc(Oc4nccc(C)n4)c(F)c3)c3c(N)ncnc3n1[C@@H](C)CO2` [Example 1442], the figures for the IC50 in assay [1] (setting [3]) and in assay [2] were 250 to 1000 nM and 1000 to 100000 nM, respectively.

Regarding `C#Cc1ccc2c(n1)CCCn1c-2c(-c2ccc(Oc3nccc(C)n3)c(F)c2)c2c(N)ncnc21` [Example 1443], the IC50 in assay [1] (setting [3]) is no more than 100 nM; in assay [2], 100 to 250 nM.

In the case of `C#Cc1cc2c(cn1)-c1c(-c3ccc(Oc4nccc(C)n4)c(F)c3)c3c(C)ncnc3n1CCC2` [Example 1445], the IC50 was no more than 100 nM in assay [1] (setting [3]) and less than 100 nM in assay [2].

For the molecule `C#Cc1cc(OCCO)c(-c2[nH]c3ncnc(N)c3c2-c2ccc(Oc3nccc(C)n3)c(F)c2)cn1` [Example 1447], the values for the IC50 in assay [1] (setting [3]) and in assay [2] were no more than 100 nM and less than 100 nM, respectively.

In the case of `C#Cc1cc(OC)c(-c2c(-c3ncc(Oc4nccc(C)n4)cc3F)c3c(N)ncnc3n2C)cn1` [Example 1452], the results for the half-maximal inhibitory concentration (IC50) in assay [1] (setting [3]) and in assay [2] were no more than 100 nM and less than 100 nM, respectively.

In the case of `C#Cc1cc(OC)c(-c2c(-c3ncc(Oc4nccc(C)n4)cc3F)c3c(C)ncnc3n2C)cn1` [Example 1454], the IC50 in assay [1] (setting [3]) is no more than 100 nM; in assay [2] it was less than 100 nM.

Turning to `C#Cc1cc2c(cn1)-c1c(-c3ccc(Oc4nccc(C)n4)c(F)c3)c3c(N)ncnc3n1C[C@H](C)O2` [Example 1455], the IC50 in assay [1] (setting [3]) was no more than 100 nM; in assay [2] it was less than 100 nM.

As for `C#Cc1cc2c(cn1)-c1c(-c3ccc(Oc4nccc(C)n4)c(F)c3)c3c(N)ncnc3n1C[C@@H](C)O2` [Example 1456], the IC50 in assay [1] (setting [3]) was no more than 100 nM; in assay [2] it was less than 100 nM.

Turning to `C#Cc1cc(OC)c(-c2c(-c3ccc(C(=O)NCC4(F)CCC4)c(OC)c3)c3c(C)ncnc3n2C)cn1` [Example 1457], the IC50 is no more than 100 nM in assay [1] (setting [3]) and 100 to 250 nM in assay [2].

In the case of `C#Cc1cc(N(C)C)c(-c2c(-c3ccc(Oc4nccc(C)n4)c(F)c3)c3c(N)ncnc3n2C)cn1` [Example 1458], the IC50 in assay [1] (setting [3]) is no more than 100 nM; in assay [2] it was less than 100 nM.

As to `C#Cc1ccc2c(cc(-c3c(-c4ccc(Oc5nccc(C)n5)c(F)c4)c4c(N)ncnc4n3C)n2C)n1` [Example 1461], the concentration for half-maximal inhibition (IC50) in assay [1] (setting [3]) lay within 100 to 250 nM; in assay [2] it was 250 to 1000 nM.

In the case of `C#Cc1cc(C)c(-c2nn3c(c2-c2ccc(Oc4nccc(C)n4)c(F)c2)COCC3)cn1` [Example 1462], the IC50 in assay [1] (setting [3]) and in assay [2] was 1000 to 100000 nM throughout.

For the origin of these results see patent publication US11780845B2 (Relay Therapeutics, Inc., priority 2019, dated 2023).
